Data on two compounds can be found in ChEMBL document CHEMBL4699620, “Peptide Inhibitors of the α-Cobratoxin-Nicotinic Acetylcholine Receptor Interaction” (J Med Chem, 2020).

Series [1] is described as follows: Stability of compound in PBS buffer assessed as compound degradation measured after 2 days at 37 degC by HPLC analysis. The series is classed as physicochemical. The note with it: time 2 day, read-out: Drug degradation.
The nature of series [2]: Stability of compound in PBS buffer measured after 1 day at 37 degC by HPLC analysis. Type of series: physicochemical. The conditions noted are these: 24 h.
The target of the next series is T1, Alpha-cobratoxin (Naja kaouthia, UniProt P01391).
T1 sequence (P01391 whole entry): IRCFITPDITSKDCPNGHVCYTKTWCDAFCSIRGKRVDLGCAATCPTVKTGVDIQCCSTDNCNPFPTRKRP
In words: Displacement of TAMRA-HAKTYMWDGWYMPTSH-NH2 from Naja kaouthia alpha-cobratoxin by fluorescence polarization assay. In general terms: Fluorescence polarisation rises when a labelled molecule tumbles more slowly, as on binding a larger partner.

Series [3] in a line: Stability of compound in PBS buffer measured after 1 day at room temperature by HPLC analysis. The series is classed as physicochemical. The note with it: 24 h.
Series [4] is described as follows: Stability of compound in PBS buffer assessed as compound degradation measured after 9 days at room temperature by HPLC analysis. Type of series: physicochemical. The note with it: time 9 day, read-out: Drug degradation.

Where a SMILES comes first, the peptide text is derived from it. [ ]: non-standard residue; d: D form. PEG6 = NCCOCCOCCOCCOCCOCCOCCC(=O)O

Consider `CSCC[C@H](NC(=O)[C@H](Cc1ccc(O)cc1)NC(=O)[C@H](Cc1c[nH]c2ccccc12)NC(=O)CNC(=O)[C@H](CC(=O)O)NC(=O)[C@H](Cc1c[nH]c2ccccc12)NC(=O)[C@H](CCSC)NC(=O)[C@H](Cc1ccc(O)cc1)NC(=O)CCOCCOCCOCCOCCOCCOCCN)C(N)=O` (H-[PEG6]YMWDGWYM-NH2), for which the degraded at 48 h in series [1] was 7%. Also, the Stabilty entry in series [2] and in series [3] was “Stable” in each case. Further, affinity at Alpha-cobratoxin was put at a Ki of 26 µM. Also, the degraded at 216 h in series [4] amounted to 7%.

For the compound Ac-HAKTYMWDGWYMPTSH-NH2, the Stabilty entry in series [2] is listed as “Stable”. For the same compound, at Alpha-cobratoxin, the IC50 – broadly, the concentration needed to halve the response being measured – was determined as 29 µM and affinity was put at a Ki of 2 µM. In addition, the Stabilty result in series [3] is recorded as “Stable”.
